Measurements from PMC10644263 (Biochemistry, 2020).
pKi: −log10 of the molar value. “And” between values parts separate entries of the source, which are not always exact repeats. Identical values can stand only once.

Key:
HpMTAN = biological target: T1, HpMTAN (Helicobacter pylori, UniProt Q9ZMY2); assay: Inhibition of HpMTAN; format: biochemical; conditions: 37 °C
T1 sequence (Q9ZMY2 1-230): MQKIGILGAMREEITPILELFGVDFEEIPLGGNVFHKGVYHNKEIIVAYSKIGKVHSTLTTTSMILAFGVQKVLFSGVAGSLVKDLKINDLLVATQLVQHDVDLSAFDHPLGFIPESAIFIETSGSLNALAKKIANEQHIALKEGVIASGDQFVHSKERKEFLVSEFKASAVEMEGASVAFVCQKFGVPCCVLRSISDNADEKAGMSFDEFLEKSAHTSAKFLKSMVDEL

SaMTAN = biological target: T2, SaMTAN (Staphylococcus aureus, UniProt Q5HFG2); assay: Inhibition of SaMTAN; format: biochemical; conditions: 37 °C, compared with MTDIA
T2 sequence (Q5HFG2 1-228): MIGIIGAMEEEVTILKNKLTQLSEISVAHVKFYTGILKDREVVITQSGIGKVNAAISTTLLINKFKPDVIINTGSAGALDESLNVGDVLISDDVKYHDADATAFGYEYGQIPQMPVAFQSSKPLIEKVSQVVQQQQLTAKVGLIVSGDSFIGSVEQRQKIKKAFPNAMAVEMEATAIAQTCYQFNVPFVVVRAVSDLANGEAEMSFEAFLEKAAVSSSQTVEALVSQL

Row | Structure (SMILES) | improvement of Ki/affinity relative to MTDIA for HpMTAN (HpMTAN; compared with MTDIA) [fold] | improvement of Ki relative to MTDIA for SaMTAN (SaMTAN) [fold] | pKi (HpMTAN; read-out: Ki (dissociation constant) for HpMTAN)
1 | Nc1ncnc2c(CN3C[C@H](CSCCOCCO)[C@@H](O)C3)c[nH]c12 [Compound 2] | 14 | 81 | 
2 | CSC[C@H]1CN(Cc2c[nH]c3c(N)ncnc23)C[C@@H]1O [MTDIA, Methylthio-DADMe-Immucillin-A] |  |  | 9.00 and 8.90
